Patent publication US20230183640A1, “METABOLIC INHIBITORS WITH EFFICACY FOR INHIBITING SULFIDE PRODUCTION IN HARSH ENVIRONMENTS” (MC (US) 3 LLC, priority 2020, published 2023)

Experiments:
Assay type in all cases: cell-based
[1] = tested on: Enterobacter aerogenes 13048; experiment: Log (Growth) efficacy in anaerobic conditions, non-SRB bacteria
Description: (§1) Enumerations were done at each time point, which included 0 hour, 1 hour, 4 hours and 24 hours. Enumeration plates were made to determine the log growth in each dosed sample. For this process, enumeration plates were prepared by adding 180 μL fresh TSB. 20 μL was taken from each well of the challenge plates and transferred to the enumeration plates using a 20-200 μL multichannel pipette. Enumeration plates were mixed three times using the multichannel pipette and serial diluted down the plate tenfold (20 μL into 180 μL). This serial dilution process was repeated for all challenge plate rows giving a total of 6 enumeration plates. These enumeration plates were read after 24-hours and by counting the number of turbid wells in a row.
(§2) Klebsiella pneumoniae 13883, Enterobacter aerogenes 13048, Escherichia coli 8739, and Enterococcus faecalis 29212 cultures were made by adding one loop from a freezer stock to 10 mL of fresh Phenol Red Media. These were grown anaerobically at 30° C. for 24 hours.
(§3) Following the 24-hour incubation, each culture was diluted to 1:10 in fresh Phenol Red Media. Using these cultures, two deep well plates were prepared. Edge wells were not used due to their inherent variability and evaporation of the media. Each of the components were added at their respective concentrations for a final volume of 250 μL per well. In Table 9, the concentrations of the compound C1 used for the experiments are listed. Each experiment was done with at least three replicates for different treatments and non-treatment controls. Plates were then sealed with a titer-top and incubated at room temperature in anaerobic chamber. Enumerations were conducted at 0 hour, 1 hour, 4 hours, and 24 hours. The process for these enumerations was the same as that done for example 2; however, utilizing phenol red media instead of tryptic soy broth.

[2] = tested on: Enterococcus faecalis 29212; experiment: as above
Description: as §1, §2, §3

Escherichia coli 8739 = experiment: as above
Description: as §1, §2, §3

[3] = tested on: Klebsiella pneumoniae 13883; experiment: as above
Description: as §1, §2, §3

[4] = tested on: various microorganism strains; experiment: Comparative testing of C1 in aerobic and anaerobic conditions; conditions: Examples 2 and 3
Excerpt: Therefore, to further analyze the efficacy of compound C1, comparative testing was done in both aerobic and anaerobic conditions using additional bacteria cultures. For aerobic conditions testing, the following strains were used: Escherichia coli, Pseudomonas aeruginosa, Enterobacter aerogenes, and Klebsiella pneumoniae. For anaerobic testing, the following strains were used: Klebsiella pneumoniae, Enterobacter aerogenes, Escherichia coli, and Enterococcus faecalis.

## O=C(CN1C(=O)c2cccc3cccc(c23)C1=O)NO [C1]
[1]; 0 hours, 15.625 PPM
  Log (Growth): 6.333
[1]; 0 hours, 31.25 PPM
  Log (Growth): 6.667
[1]; 0 hours, 62.5 PPM
  Log (Growth): 6.333
[1]; 0 hours, 125 PPM
  Log (Growth): 6.333
[1]; 0 hours, 250 PPM
  Log (Growth): 6.667
[1]; 0 hours, 500 PPM
  Log (Growth): 6.333
[1]; 1 hour, 15.625 PPM
  Log (Growth): 7.000
[1]; 1 hour, 31.25 PPM
  Log (Growth): 6.333
[1]; 1 hour, 62.5 PPM
  Log (Growth): 7.000
[1]; 1 hour, 125 PPM
  Log (Growth): 6.000
[1]; 1 hour, 250 PPM
  Log (Growth): 5.667
[1]; 1 hour, 500 PPM
  Log (Growth): 5.667
[1]; 4 hours, 15.625 PPM
  Log (Growth): 7.333
[1]; 4 hours, 31.25 PPM
  Log (Growth): 7.000
[1]; 4 hours, 62.5 PPM
  Log (Growth): 4.667
[1]; 4 hours, 125 PPM
  Log (Growth): 5.000
[1]; 4 hours, 250 PPM
  Log (Growth): 5.333
[1]; 4 hours, 500 PPM
  Log (Growth): 5.333
[1]; 24 hours, 15.625 PPM
  Log (Growth): 7.667
[1]; 24 hours, 31.25 PPM
  Log (Growth): 6.667
[1]; 24 hours, 62.5 PPM
  Log (Growth): 6.333
[1]; 24 hours, 125 PPM
  Log (Growth): 6.000
[1]; 24 hours, 250 PPM
  Log (Growth): 6.333
[1]; 24 hours, 500 PPM
  Log (Growth): 6.000
[2]; 0 hours, 15.625 PPM
  Log (Growth): 7.000
[2]; 0 hours, 31.25 PPM
  Log (Growth): 6.667
[2]; 0 hours, 62.5 PPM
  Log (Growth): 7.000
[2]; 0 hours, 125 PPM
  Log (Growth): 6.333
[2]; 0 hours, 250 PPM
  Log (Growth): 7.000
[2]; 0 hours, 500 PPM
  Log (Growth): 6.667
[2]; 1 hour, 15.625 PPM
  Log (Growth): 6.667
[2]; 1 hour, 31.25 PPM
  Log (Growth): 6.000
[2]; 1 hour, 62.5 PPM
  Log (Growth): 6.333
[2]; 1 hour, 125 PPM
  Log (Growth): 5.667
[2]; 1 hour, 250 PPM
  Log (Growth): 6.333
[2]; 1 hour, 500 PPM
  Log (Growth): 6.000
[2]; 4 hours, 15.625 PPM
  Log (Growth): 6.667
[2]; 4 hours, 31.25 PPM
  Log (Growth): 5.667
[2]; 4 hours, 62.5 PPM
  Log (Growth): 4.667
[2]; 4 hours, 125 PPM
  Log (Growth): 4.333
[2]; 4 hours, 250 PPM
  Log (Growth): 4.333
[2]; 4 hours, 500 PPM
  Log (Growth): 4.667
[2]; 24 hours, 15.625 PPM
  Log (Growth): 6.333
[2]; 24 hours, 31.25 PPM
  Log (Growth): 5.333
[2]; 24 hours, 62.5 PPM
  Log (Growth): 5.667
[2]; 24 hours, 125 PPM
  Log (Growth): 5.667
[2]; 24 hours, 250 PPM
  Log (Growth): 4.333
[2]; 24 hours, 500 PPM
  Log (Growth): 4.000
Escherichia coli 8739; 0 hours, 15.625 PPM
  Log (Growth): 7.000
Escherichia coli 8739; 0 hours, 31.25 PPM
  Log (Growth): 6.667
Escherichia coli 8739; 0 hours, 62.5 PPM
  Log (Growth): 6.667
Escherichia coli 8739; 0 hours, 125 PPM
  Log (Growth): 6.333
Escherichia coli 8739; 0 hours, 250 PPM
  Log (Growth): 6.000
Escherichia coli 8739; 0 hours, 500 PPM
  Log (Growth): 6.333
Escherichia coli 8739; 1 hour, 15.625 PPM
  Log (Growth): 7.000
Escherichia coli 8739; 1 hour, 31.25 PPM
  Log (Growth): 6.000
Escherichia coli 8739; 1 hour, 62.5 PPM
  Log (Growth): 6.333
Escherichia coli 8739; 1 hour, 125 PPM
  Log (Growth): 6.000
Escherichia coli 8739; 1 hour, 250 PPM
  Log (Growth): 6.000
Escherichia coli 8739; 1 hour, 500 PPM
  Log (Growth): 6.000
Escherichia coli 8739; 4 hours, 15.625 PPM
  Log (Growth): 6.667
Escherichia coli 8739; 4 hours, 31.25 PPM
  Log (Growth): 6.667
Escherichia coli 8739; 4 hours, 62.5 PPM
  Log (Growth): 5.333
Escherichia coli 8739; 4 hours, 125 PPM
  Log (Growth): 4.667
Escherichia coli 8739; 4 hours, 250 PPM
  Log (Growth): 5.000
Escherichia coli 8739; 4 hours, 500 PPM
  Log (Growth): 4.333
Escherichia coli 8739; 24 hours, 15.625 PPM
  Log (Growth): 6.000
Escherichia coli 8739; 24 hours, 31.25 PPM
  Log (Growth): 4.000
Escherichia coli 8739; 24 hours, 62.5 PPM
  Log (Growth): 2.667
Escherichia coli 8739; 24 hours, 125 PPM
  Log (Growth): 3.000
Escherichia coli 8739; 24 hours, 250 PPM
  Log (Growth): 4.000
Escherichia coli 8739; 24 hours, 500 PPM
  Log (Growth): 2.667
[3]; 0 hours, 15.625 PPM
  Log (Growth): 6.667
[3]; 0 hours, 31.25 PPM
  Log (Growth): 6.667
[3]; 0 hours, 62.5 PPM
  Log (Growth): 6.667
[3]; 0 hours, 125 PPM
  Log (Growth): 6.667
[3]; 0 hours, 250 PPM
  Log (Growth): 6.000
[3]; 0 hours, 500 PPM
  Log (Growth): 6.000
[3]; 1 hour, 15.625 PPM
  Log (Growth): 6.667
[3]; 1 hour, 31.25 PPM
  Log (Growth): 5.667
[3]; 1 hour, 62.5 PPM
  Log (Growth): 5.000
[3]; 1 hour, 125 PPM
  Log (Growth): 3.667
[3]; 1 hour, 250 PPM
  Log (Growth): 4.333
[3]; 1 hour, 500 PPM
  Log (Growth): 4.333
[3]; 4 hours, 15.625 PPM
  Log (Growth): 3.333
[3]; 4 hours, 31.25 PPM
  Log (Growth): 2.000
[3]; 4 hours, 62.5 PPM
  Log (Growth): 2.000
[3]; 4 hours, 125 PPM
  Log (Growth): 1.667
[3]; 4 hours, 250 PPM
  Log (Growth): 2.333
[3]; 4 hours, 500 PPM
  Log (Growth): 2.000
[3]; 24 hours, 15.625 PPM
  Log (Growth): 6.333
[3]; 24 hours, 31.25 PPM
  Log (Growth): 4.667
[3]; 24 hours, 62.5 PPM
  Log (Growth): 5.667
[3]; 24 hours, 125 PPM
  Log (Growth): 1.667
[3]; 24 hours, 250 PPM
  Log (Growth): 0.000
[3]; 24 hours, 500 PPM
  Log (Growth): 0.000
[4]
  inhibition under anaerobic as opposed to aerobic conditions: preferentially inhibited hydrogen sulfide production under anaerobic conditions
  killing of the various microorganism strains: completely killing
